Assay results: US8198330B2, “Therapeutic or prophylactic agent for diabetes, obesity, dyslipidemia or metabolic syndrome comprising benzylamine derivative or pharmaceutically acceptable acid addition salt thereof” (Toray Industries, Inc., priority 2008, dated 2012)

How the values were obtained:
KK/Ay mice = test: Efficacy in Type 2 diabetes-model mice (KK/Ay mice); type: in vivo, mouse
Description: KK/Ay male mice of 5 weeks of age (CLEA Japan, Inc.) were purchased; a feeding stuff for growth CMF (Oriental Yeast) was provided since the day of arrival; and mice after growth for 3 weeks or longer were used. The compound of Example 1 was diluted to 2 mg/mL, as it is dissolved in physiological saline, and the solution was administered subcutaneously in an amount of 5 mL/kg, by using a disposable syringe (Terumo) and a 26G injection needle (Terumo). Physiological saline was administered to the mice in the vehicle group. The solution was administered once a day from the day of first administration (day 0) to day 13, and the tail vein was cut open with a knife (disposable scalpel, FEATHER) and the blood sugar was determined with a simplified blood sugar analyzer (MediSense Precision Xceed, Abotto Japan). Statistical treatment of the individual data obtained was carried out by a two-group test (unpaired t-test).

DIO mice [1] = test: Efficacy in diabetes/obesity-model mice (DIO mice): blood sugar, body weight, fat, triglyceride; type: in vivo, mouse; details: for Weight of the fat around the mouse testicles / Blood sugar / Increase in body weight / Triglyceride: DIO mouse; for Weight of the fat around the mouse testicles: after ITT (day 27); for Blood sugar / Increase in body weight / Triglyceride: day 26; for Triglyceride: plasma
Description: C57BL/6J mice grown on a solid feeding stuff containing 60% fat (D12492, Research Diets) since 4 weeks of age, (male, Charles River Laboratories, Japan, 13 weeks of age) were purchased and mice of 16 weeks of age grown on D12492 since the day of arrival were used. C57BL/6J mice of 16 weeks of age grown on normal food since the day of arrival were used in the normal group. The compound of Example 1 was diluted to 2 mg/mL or 0.6 mg/mL, as it is dissolved in physiological saline, and the solution was administered subcutaneously in an amount of 5 mL/kg, by using a disposable syringe (Terumo) and a 26G injection needle (Terumo). Physiological saline was administered in the vehicle group. The solution was administered once a day from the day of first administration (day 0) to day 26. The body weight was determined on day 26; the tail vein was cut open with a knife (disposable scalpel, FEATHER); and the blood sugar was determined with a simplified blood sugar analyzer (MediSense Precision Xceed, Abotto Japan).
(§1) The blood was collected (approximately 70 μL) from the same site by using a heparin-treated capillary (Hematokrit Kapilaren, 75 μL, […] LABORGERATE) and the collected blood was centrifuged (12,000 rpm, 7 min, 4° C.) in a hematocrit centrifuge (KUBOTA3100, Kubota Corp.) and the plasma was stored, as it is frozen in an Eppendorf tube, until it is used for measurement of triglyceride. The triglyceride measurement was carried out by using Triglyceride E-Test Wako (Wako Pure Chemical Industries). Four μL of the sample was added to 250 μL of the coloring liquid, after reaction at 37° C. for 1 hour, and the absorbance (595 nm) of the mixture was determined by using a microplate reader (Bio-Rad, Model 680). Separately, insulin tolerance test (ITT) was performed on day 27.
The insulin level was measured by using an insulin measurement kit (Lebis Insulin Mouse U, Shibayagi). Finally, HOMA-IR was also calculated from the values of fasting blood sugar and fasting insulin. The weight of the fat around the mouse testicles was also determined after measurement of ITT. Statistical treatment of the individual data obtained was carried out by a two-group test (unpaired t-test) or a multiplex comparison test (parametric Williams test).

DIO mice [2] = test: Insulin tolerance test (ITT) in DIO mice; type: in vivo, mouse; details: day 27, insulin 0.3 unit/kg i.p., FIG. 1
Description: as §1
The mouse was left non-feeded in a fasting cage after drug administration on day 26. In the morning of the day of ITT (day 27), the fasting blood sugar was determined by a method identical with that used for blood sugar measurement on day 26. The blood sugar was measured once again in the afternoon of the same day; an insulin solution was administered intraperitoneally (0.3 unit/5 mL/kg) immediately after then; and the blood sugar was measured 30, 60, 120 and 180 minutes after insulin administration since then. […]
The insulin level was measured by using an insulin measurement kit (Lebis Insulin Mouse U, Shibayagi). […]

conscious rat = test: Effect on the cardiovascular system (heart rate) of conscious rat; type: in vivo; details: conscious SD rat, s.c. 1, 3 and 10 mg/kg at 30 minute intervals, FIG. 2
Description: SD male rats of 7 weeks of age (Charles River Laboratories Japan Inc.) were purchased and used when they are 8 weeks of age. The rats were anesthetized by intraperitoneal administration of pentobarbital at 60 mg/kg; the back central region and the femoral region were cut open; a polyethylene tube (SP-31, Natsume Seisakusho Co., Ltd.) connected to a polyurethane tube (BC-3.5P, American Access Technologies) was inserted from the back to the femoral region, to place the polyethylene tube in femoral artery. After the femoral region was sutured, a flexible stainless steel pipe containing the polyethylene tube was sutured and fixed to the back skin. Heparin at 100 IU to 200 IU/mL was filled into the polyethylene tube and the polyurethane tube for prevention of blood clotting. After surgical operation, the rats were placed and grown back in 5-compartment wire mesh cage. […]
The heart rate of the rats was determined, by sending the pulse wave obtained in the blood pressure amplifier (AP-641G, Nihon Kohden Corp.) attached to the Life Kit for monitoring blood pressure to an instantaneous heart rate meter unit (AT-601T, Nihon Kohden Corp.). The heart rate was recorded on the chart paper in a thermal multirecorder (RIA-1300A, Nihon Kohden Corp.) by using a polygraph (RM-6000, Nihon Kohden Corp.). […]

COc1cc(CN[C@@H](C)[C@H](O)c2ccc(O)c(NS(C)(=O)=O)c2)cc(OC)c1 [Example 1, N-(5-((1R,2S)-2-(3,5-Dimethoxybenzylamino)-1-hydroxypropyl)-2-hydroxyphenyl)methanesulfonamide]
blood sugar versus solvent group (KK/Ay mice): lowered the blood sugar statistically significantly
Blood sugar (KK/Ay mice; 10 mg/kg s.c. once a day, day 0 to day 13): 336 ± 33 mg/dL
blood sugar-reducing effect (DIO mice [1]; DIO mice): significant blood sugar-reducing effect
increase in body weight versus vehicle group (DIO mice [1]; DIO mice): Significant suppression of increase in body weight
plasma triglyceride (TG) versus vehicle group (DIO mice [1]; DIO mice): declined statistically significantly
weight of the fat around the mouse testicles versus vehicle group (DIO mice [1]; DIO mice): declined significantly
Weight of the fat around the mouse testicles (DIO mice [1]; 3 mg/kg s.c. once a day): 2.6 ± 0.1 g
Blood sugar (DIO mice [1]; 3 mg/kg s.c. once a day): 177 ± 9 mg/dL
Increase in body weight (DIO mice [1]; 3 mg/kg s.c. once a day): 3.5 ± 0.6 g
Weight of the fat around the mouse testicles (DIO mice [1]; 10 mg/kg s.c. once a day): 2.3 ± 0.1 g
Blood sugar (DIO mice [1]; 10 mg/kg s.c. once a day): 168 ± 8 mg/dL
Increase in body weight (DIO mice [1]; 10 mg/kg s.c. once a day): 2.1 ± 0.5 g
Triglyceride (DIO mice [1]; 3 mg/kg s.c. once a day): 162 ± 14 mg/dL
Triglyceride (DIO mice [1]; 10 mg/kg s.c. once a day): 129 ± 9 mg/dL
blood sugar after insulin administration (ITT) versus vehicle group (DIO mice [2]): declined statistically significantly
influence on heart rate (conscious rat): did not have any influence on rat heart rate
